From patent publication US20230233704A1, “HYDROGEL COMPOSITION AND ASSOCIATED METHOD OF USE” (Quthero, Inc., priority 2017, published 2023) come the findings set out here.

Assay [1] has as its system Primary neonatal human epithelial keratinocytes (HEKs). Description: BrdU proliferation assay of HEKs with soluble QHREDGS peptide. The following applies: soluble peptide Low 100 μM, High 650 μM; 8 h BrdU. Format: cell-based. The method, then:
(§1) The effect of the QHREDGS peptide as in the soluble form was assessed on HEKs in vitro. 24- or 96-well plates were coated with 0.05 mg/mL type I collagen (BD Biosciences) in 0.02 N acetic acid overnight and then rinsed once with phosphate buffered saline (PBS) (Lonza). HEKs were seeded in complete EpiLife medium and attached for at least 2 h. 100 μM or 650 μM QHREDGS was supplemented to the EpiLife medium as Low or High dosage, respectively.
HEKs were seeded at a density of 1×10^4 cells/cm^2 in collagen-coated 96-well plates. After 4 h, media was removed and replenished with EpiLife media supplemented with 20 μM bromodeoxyuridine (BrdU) (Sigma Aldrich) in the presence or absence of QHREDGS peptide. After incubating for 8 h, proliferating HEKs were identified by BrdU staining. Briefly, HEKs were fixed with 4% paraformaldehyde (PFA), permeablized with 0.25% triton X, treated with DNase for 30 min at 37° C., and blocked with 5% bovine serum albumin (BSA). The HEKs were then incubated with a rat anti-BrdU antibody (AbD Serotec) overnight at 4° C. followed by an anti-rat TRITC-labelled secondary antibody (Jackson Immuno Research). BrdU-positive cells were counted in 5 randomly chosen fields under 20× magnification and then normalized to the total number of cells labelled by 4′,6-diamidino-2-phenylindole (DAPI) counterstaining.

The subject of assay [2] is HEKs. Put plainly: HEK migration on collagen coated surfaces with soluble QHREDGS peptide. Type of assay: cell-based, human. The following applies: soluble peptide 100 μM or 650 μM; collagen-coated surface; 24 h. How it is done:
as §1
Culture-inserts were purchased from Ibidi® and carefully placed on the chitosan-collagen films in 24-wells. HEKs were seeded in complete EpiLife medium at 0.3-0.4×10^6 cells/mL with 70-100 μL per chamber and allowed to attach for 2 h. The culture-inserts were then carefully lifted and the unattached HEKs were immediately removed by rinsing twice using warm PBS. Basal EpiLife medium was then added to the wells and the wells were imaged every 2 h for 8 h and the next day using the SpectraMax i3 plate reader. Confluent HEK monolayers were wounded (time 0) and maintained for 24 h in EpiLife basal medium with 0.12 mM Ca2+. The wounds were outlined and the area at the various time points was normalized to the initial wound size (time 0). After 24 h, HEKs were fixed with 4% paraformaldehyde.

The test system of assay [3] is HEKs. Put plainly: EarlyTox Cell Integrity assay after H2O2 treatment of HEKs with soluble QHREDGS peptide. Type of assay: cell-based, human. The following applies: 500 μM H2O2 for 2 h; soluble peptide 100 μM / 650 μM, 2 h pre-conditioning. How it is done: (§2) HEKs were seeded at a sub-confluent density in a 96-well plate for the cell integrity assay or a 24-well plate for Western blot analysis, and serum starved overnight. The HEKs were then pretreated with soluble QHREDGS (100 μM for Low and 650 μM for High) for 2 h. The cells were then exposed to fresh EpiLife basal medium supplemented with 500 μM H2O2 in the presence or absence of QHREDGS peptide. For the cell integrity assay, the cells were stained using the EarlyTox™ Cell Integrity kit (Molecular Devices) after 2 h of H2O2 treatment. For the Western analysis, another set of wells were seeded in parallel for the Ctrl, Low and High conditions and protein samples were collected after 0, 15 min and 2 h of H2O2 treatment.
The EarlyTox™ Cell Integrity Kit (Molecular Devices, R8213) is based on two nuclear dyes: live red dye is cell permeant and marks both live and dead cells (Excitation: 622 nm/Emission: 645 nm); dead green dye is cell impermeant and stains only cells with damaged outer membranes (Excitation: 503 nm/Emission: 526 nm). […] The plate was then incubated at 37° C. for 30 min and imaged using a SpectraMax i3 plate reader (Molecular Devices). The percentage of viable cells after H2O2 treatment on chitosan-collagen films in the presence or absence of QHREDGS peptide was normalized to the viability percentage of non-treated controls on the same coating film condition.

Assay [4] relates to Akt and MAPKp42/44 phosphorylation. Put plainly: Western blotting of HEKs under H2O2 stress with soluble QHREDGS peptide. The following applies: 500 μM H2O2, 15 min, soluble peptide 100 μM / 650 μM. Type of assay: cell-based, human. The method, then: as §2
Protein was isolated from keratinocytes in the 24-well plate after H2O2 treatment using 60-80 μL Lysis Buffer per well (10× Cell Lysis Buffer, Cell Signaling Technology; complete Mini, EDTA-free protease inhibitor cocktail tablet, Roche; in ddH2O). Proteins were separated by electrophoresis in Novex Tris-Glycine gels (Life technologies) and transferred using the iBlot (Life technologies) to a PVDF iBlot Transfer Stack (Life technologies). Membranes were probed for phospho-p44/42 MAPK (pMAPKp42/44), p44/42 MAPK (MAPKp42/44), phospho-Akt, Akt, or GAPDH as a loading control (Millipore). All primary antibodies were purchased from Cell Signaling unless stated otherwise. […]
A general note: A western blot detects proteins with antibodies after separation by electrophoresis.

As for QHREDGS [QHREDGS peptide], the “percentage of proliferating HEKs (BrdU incorporation)” value in assay [1] is recorded as “not affected”. Moreover, the HEK migration rate result with HEKs [2] is listed as “No significant difference”. The “percentage of viable HEKs under oxidative stress” value with HEKs [3] is “significant dose-dependent increase”. Moreover, the “phosphorylation of Akt and MAPKp42/44” value in assay [4] was “increased the phosphorylation of Akt and MAPKp42/44 and the increase was dose-dependent”.
